Assay results taken from US11708367B2, “Compounds for the treatment of kinase-dependent disorders” (Exelixis, Inc., priority 2018, dated 2023).

Tests used:
Type in all cases: cell-based
AXL = AXL (Homo sapiens (Human), UniProt P30530); assay: AXL autophosphorylation ELISA in A-172 cells; details: cellular, Gas6-stimulated, phospho-AXL ELISA
Description: A-172 glioblastoma cells (ATCC #CRL-1620) were seeded at 2.5×10^5 cells/well onto 24-well plates (Greiner #662165), in DMEM (Thermo Fisher #11995-040) containing 10% FBS (Thermo Fisher #26140-079), 1% MEM NEAA (Thermo Fisher #11140-050), 1% GlutaMax (Thermo Fisher #35050-061), and 1% Penicillin Streptomycin (Thermo Fisher #15140-122). A-172 cells were incubated at 37° C., 5% CO2 for 24 h and then starved for 24 h in serum-free medium. Test compounds were serially diluted to produce an 8-point dose curve in fresh serum-free medium to a final concentration of 0.3% DMSO (vehicle) and added to the cells and incubated for 1 h. Cells were then stimulated with 1 μg/mL recombinant human Gas6 (R&D Systems #885-GSB-500) for 15 min, washed with cold PBS, and immediately lysed with 150 μL of cold IX lysis buffer [20 mM Tris, 137 mM sodium chloride, 2 mM EDTA, 10% glycerol, 1% NP-40 alternative, 1 mM activated sodium orthovanadate, 1 mM PefaBloc SC (Sigma-Aldrich #11429868001), protease/phosphatase inhibitor tablet (Thermo Fisher #A32959)]. Lysates were collected and 100 μL/well added into the human phospho-AXL Duo Set IC ELISA (R&D Systems #DYC2228-2). Assay was performed according to manufacturer's instructions and sample phospho-AXL concentrations were extrapolated using human phospho-AXL control (R&D Systems #841645) as a standard. Positive control wells (100% activity) contained Gas6-stimulated, DMSO-treated cell lysates. Negative control wells (0% activity) contained Gas6-stimulated, reference inhibitor-treated cell lysates. IC50 values were calculated by nonlinear regression analysis using a 4-parameter logistic curve fit in ActivityBase XL (IDBS).

Met = Met (Homo sapiens (Human), UniProt P08581); assay: Met autophosphorylation ELISA in PC-3 cells; details: cellular, HGF-stimulated, phospho-Met ELISA, read-out: c-Met IC50
Description: PC-3 prostate cancer cells (ATCC #CRL-1435) were seeded at 4×10^4 cells/well onto 24-well plates (Greiner #662165), in DMEM (Thermo Fisher #11995-040) containing 10% FBS (Thermo Fisher #26140-079), 1% MEM NEAA (Thermo Fisher #11140-050), 1% GlutaMax (Thermo Fisher #35050-061), and 1% Penicillin Streptomycin (Thermo Fisher #15140-122). PC-3 cells were incubated at 37° C., 5% CO2 for 24 h and then starved for 3 h in serum-free medium. Test compounds were serially diluted to produce an 8-point dose curve in fresh serum-free medium to a final concentration of 0.3% DMSO (vehicle) and added to the cells and incubated for 1 h. Cells were then stimulated with 100 ng/mL recombinant human HGF (R&D Systems #294-HG-250) for 10 min, washed with cold PBS, and immediately lysed with 130 μL of cold IX lysis buffer [20 mM Tris, 137 mM sodium chloride, 2 mM EDTA, 10% glycerol, 1% NP-40 alternative, 1 mM activated sodium orthovanadate, 1 mM PefaBloc SC (Sigma-Aldrich #11429868001), protease/phosphatase inhibitor tablet (Thermo Fisher #A32959)]. Lysates were clarified by centrifugation and 100 μL/well added into the PathScan phospho-Met (panTyr) Sandwich ELISA (Cell Signaling Technology #7333). Assay was performed according to manufacturer's instructions. Positive control wells (100% activity) contained HGF-stimulated, DMSO-treated cell lysates. Negative control wells (0% activity) contained HGF-stimulated, reference inhibitor-treated cell lysates. IC50 values were calculated by nonlinear regression analysis using a 4-parameter logistic curve fit in ActivityBase XL (IDBS).

KDR = KDR (Homo sapiens (Human), UniProt P35968); assay: KDR autophosphorylation ELISA in HUVEC cells; details: cellular, VEGF165-stimulated, phospho-KDR ELISA
Description: Human umbilical vein endothelial cells or HUVEC (Lonza #C2519A) were seeded at 2×10^4 cells/well onto 96-well plates (Corning #3904), in EGM-2 growth medium (Lonza #CC-3162) containing 1% Penicillin Streptomycin (Thermo Fisher #15140-122). HUVEC cells were incubated at 37° C., 5% CO2 for 24 h and then starved for 24 h in serum-free EBM-2 basal medium (Lonza #CC-3156) containing 1% Penicillin Streptomycin. Test compounds were serially diluted to produce an 8-point dose curve in fresh serum-free medium to a final concentration of 0.3% DMSO (vehicle) and added to the cells and incubated for 1 h. Cells were then stimulated with 100 ng/mL recombinant human VEGF165 (R&D Systems #293-VE-500) for 5 min, washed with cold PBS, and immediately lysed with 130 μL of cold 1× lysis buffer [20 mM Tris, 137 mM sodium chloride, 2 mM EDTA, 10% glycerol, 1% NP-40 alternative, 1 mM activated sodium orthovanadate, 1 mM PefaBloc SC (Sigma-Aldrich #11429868001), protease/phosphatase inhibitor tablet (Thermo Fisher #A32959)]. Lysates were collected and 100 μL/well added into the human phospho-KDR Duo Set IC ELISA (R&D Systems #DYC 1766-2). Assay was performed according to manufacturer's instructions and sample phospho-KDR concentrations were extrapolated using human phospho-KDR control (R&D Systems #841421) as a standard. Positive control wells (100% activity) contained VEGF165-stimulated, DMSO-treated cell lysates. Negative control wells (0% activity) contained non-stimulated cell lysates. IC50 values were calculated by nonlinear regression analysis using a 4-parameter logistic curve fit in ActivityBase XE (IDBS).

Sequence of Met (P08581 25-1390): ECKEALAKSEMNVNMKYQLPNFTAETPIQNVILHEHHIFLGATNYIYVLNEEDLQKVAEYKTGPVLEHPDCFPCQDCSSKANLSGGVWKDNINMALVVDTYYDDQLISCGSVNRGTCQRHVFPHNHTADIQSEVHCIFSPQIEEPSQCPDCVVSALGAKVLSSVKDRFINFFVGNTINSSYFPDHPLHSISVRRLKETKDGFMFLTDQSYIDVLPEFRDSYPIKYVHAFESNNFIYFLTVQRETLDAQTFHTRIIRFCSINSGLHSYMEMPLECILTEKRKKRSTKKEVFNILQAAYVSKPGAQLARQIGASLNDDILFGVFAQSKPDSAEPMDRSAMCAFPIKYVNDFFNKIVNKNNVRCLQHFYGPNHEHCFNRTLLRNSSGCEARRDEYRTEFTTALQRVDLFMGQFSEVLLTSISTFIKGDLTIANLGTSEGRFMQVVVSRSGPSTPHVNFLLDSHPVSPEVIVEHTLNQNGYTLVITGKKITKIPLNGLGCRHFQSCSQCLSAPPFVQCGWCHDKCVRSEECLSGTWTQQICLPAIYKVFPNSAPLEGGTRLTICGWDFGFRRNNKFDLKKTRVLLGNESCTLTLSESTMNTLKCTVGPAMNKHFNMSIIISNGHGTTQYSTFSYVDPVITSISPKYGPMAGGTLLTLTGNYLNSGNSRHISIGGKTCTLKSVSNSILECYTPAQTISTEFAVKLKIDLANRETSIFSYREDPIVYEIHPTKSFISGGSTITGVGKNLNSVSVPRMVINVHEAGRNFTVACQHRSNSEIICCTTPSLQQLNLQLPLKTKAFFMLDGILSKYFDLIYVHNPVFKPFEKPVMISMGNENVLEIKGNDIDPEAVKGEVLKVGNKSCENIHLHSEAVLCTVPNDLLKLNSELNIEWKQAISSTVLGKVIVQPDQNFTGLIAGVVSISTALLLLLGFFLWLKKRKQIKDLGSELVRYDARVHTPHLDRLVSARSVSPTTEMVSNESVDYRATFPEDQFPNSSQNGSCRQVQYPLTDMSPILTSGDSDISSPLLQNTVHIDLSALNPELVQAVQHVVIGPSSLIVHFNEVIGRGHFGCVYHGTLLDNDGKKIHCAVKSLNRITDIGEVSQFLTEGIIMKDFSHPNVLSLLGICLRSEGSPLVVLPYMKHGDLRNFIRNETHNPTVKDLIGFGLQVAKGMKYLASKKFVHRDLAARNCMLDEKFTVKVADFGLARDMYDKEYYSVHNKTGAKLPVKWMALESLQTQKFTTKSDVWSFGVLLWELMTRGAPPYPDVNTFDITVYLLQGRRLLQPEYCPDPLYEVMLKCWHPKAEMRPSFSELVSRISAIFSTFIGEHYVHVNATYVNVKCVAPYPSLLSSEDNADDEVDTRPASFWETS
Sequence of AXL (P30530 26-894): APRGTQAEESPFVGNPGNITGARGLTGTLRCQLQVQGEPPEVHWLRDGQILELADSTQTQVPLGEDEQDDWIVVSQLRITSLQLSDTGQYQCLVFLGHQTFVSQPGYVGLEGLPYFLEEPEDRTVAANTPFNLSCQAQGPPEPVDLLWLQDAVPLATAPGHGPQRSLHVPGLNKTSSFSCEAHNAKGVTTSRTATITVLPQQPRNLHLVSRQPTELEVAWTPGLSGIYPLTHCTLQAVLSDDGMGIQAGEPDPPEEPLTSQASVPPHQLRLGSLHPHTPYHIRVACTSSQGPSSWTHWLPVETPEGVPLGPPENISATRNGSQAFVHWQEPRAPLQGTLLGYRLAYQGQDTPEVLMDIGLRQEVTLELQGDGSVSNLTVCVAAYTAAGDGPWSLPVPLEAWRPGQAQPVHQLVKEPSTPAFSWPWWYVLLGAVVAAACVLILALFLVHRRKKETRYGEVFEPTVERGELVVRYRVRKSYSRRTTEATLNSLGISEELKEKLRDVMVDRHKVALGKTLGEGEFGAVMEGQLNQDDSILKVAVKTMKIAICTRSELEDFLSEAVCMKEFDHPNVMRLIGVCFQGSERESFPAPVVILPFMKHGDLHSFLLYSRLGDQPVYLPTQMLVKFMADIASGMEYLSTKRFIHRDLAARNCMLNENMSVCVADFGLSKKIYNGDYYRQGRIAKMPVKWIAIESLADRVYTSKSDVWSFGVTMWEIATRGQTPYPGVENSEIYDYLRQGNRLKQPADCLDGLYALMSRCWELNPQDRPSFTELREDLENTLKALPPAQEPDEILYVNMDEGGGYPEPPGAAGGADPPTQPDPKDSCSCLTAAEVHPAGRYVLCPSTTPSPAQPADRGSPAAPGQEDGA
Sequence of KDR (P35968 20-1356): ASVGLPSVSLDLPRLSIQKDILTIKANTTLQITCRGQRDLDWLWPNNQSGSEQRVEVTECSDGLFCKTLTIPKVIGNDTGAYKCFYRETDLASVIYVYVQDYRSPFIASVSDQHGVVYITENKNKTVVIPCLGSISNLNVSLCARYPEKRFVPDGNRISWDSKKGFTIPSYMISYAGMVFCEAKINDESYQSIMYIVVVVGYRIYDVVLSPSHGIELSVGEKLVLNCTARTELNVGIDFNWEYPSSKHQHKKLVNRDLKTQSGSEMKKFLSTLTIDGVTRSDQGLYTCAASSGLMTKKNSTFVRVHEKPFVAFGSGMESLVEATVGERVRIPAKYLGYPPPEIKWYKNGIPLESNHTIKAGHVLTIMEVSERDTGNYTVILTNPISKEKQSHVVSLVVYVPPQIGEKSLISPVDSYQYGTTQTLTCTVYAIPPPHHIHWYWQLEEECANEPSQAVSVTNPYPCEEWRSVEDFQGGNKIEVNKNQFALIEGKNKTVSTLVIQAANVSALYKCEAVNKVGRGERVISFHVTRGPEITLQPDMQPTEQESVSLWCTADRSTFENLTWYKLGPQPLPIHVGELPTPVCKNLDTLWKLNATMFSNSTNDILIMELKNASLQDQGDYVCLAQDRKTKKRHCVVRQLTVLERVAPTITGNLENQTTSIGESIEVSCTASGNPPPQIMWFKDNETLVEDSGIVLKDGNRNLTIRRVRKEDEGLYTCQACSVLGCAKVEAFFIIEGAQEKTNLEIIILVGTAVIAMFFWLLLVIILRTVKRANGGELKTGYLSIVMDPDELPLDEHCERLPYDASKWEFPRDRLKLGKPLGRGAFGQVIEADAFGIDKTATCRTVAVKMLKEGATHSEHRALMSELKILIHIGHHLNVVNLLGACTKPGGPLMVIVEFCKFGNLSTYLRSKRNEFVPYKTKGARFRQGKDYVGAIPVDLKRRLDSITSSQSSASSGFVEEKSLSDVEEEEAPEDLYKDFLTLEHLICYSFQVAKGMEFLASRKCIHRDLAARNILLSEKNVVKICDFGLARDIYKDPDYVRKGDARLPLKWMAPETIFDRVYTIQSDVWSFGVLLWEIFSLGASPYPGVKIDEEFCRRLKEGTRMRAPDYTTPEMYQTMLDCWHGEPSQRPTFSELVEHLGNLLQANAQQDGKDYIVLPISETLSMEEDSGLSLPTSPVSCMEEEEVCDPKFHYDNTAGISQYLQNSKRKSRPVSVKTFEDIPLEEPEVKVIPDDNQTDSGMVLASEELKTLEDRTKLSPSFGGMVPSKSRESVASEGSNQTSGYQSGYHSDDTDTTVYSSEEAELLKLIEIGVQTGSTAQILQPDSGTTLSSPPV

Row | SMILES | IC50 (AXL) [nM] | IC50 (Met) [nM] | IC50 (KDR) [nM]
1 | O=C(Nc1ccc(F)cc1)C1(C(=O)Nc2ccc(Oc3ccnc4cc5c(nc34)OCCO5)c(F)c2)CC1 [Compound 158, 1-N′-[4-(2,3-dihydro-[1,4]dioxino[2,3-b][1,5]naphthyridin-6-yloxy)-3-fluorophenyl]-1-N-(4-fluorophenyl)cyclo-propane-1,1-dicarboxamide] | > 300 | > 300 | > 300
2 | COc1cc(NC(=O)C2(C(=O)Nc3ccc(F)cc3)CC2)ccc1Oc1ncnc2cc(OCCCN3CCOCC3)c(OC)nc12 [Compound 74, 1-N-(4-fluorophenyl)-1-N′-[3-methoxy-4-[6-methoxy-7-(3-morpholin-4-ylpropoxy)pyrido[3,2-d]pyrimidin-4-yl]oxyphenyl]cyclopropane-1,1-dicarboxamide] | 100 to 300 | > 300 | 10 to 100
3 | O=C(Nc1ccc(F)cc1)C1(C(=O)Nc2ccc(Oc3ccnc4cc5c(nc34)OCCO5)cc2)CC1 [Compound 157, 1-N-[4-(2,3-dihydro-[1,4]dioxino[2,3-b][1,5]naphthyridin-6-yloxy)phenyl]-1-N′-(4-fluorophenyl)cyclopropane-1,1-dicarboxamide] | > 300 | > 300 | > 300
4 | COc1cc2ncnc(Oc3ccc(NC(=O)C4(C(=O)Nc5ccc(F)cc5)CC4)c(C)c3)c2nc1OC [Compound 33, 1-N′-[4-(6,7-dimethoxypyrido[3,2-d]pyrimidin-4-yl)oxy-2-methylphenyl]-1-N-(4-fluorophenyl)cyclopropane-1,1-dicarboxamide] | 100 to 300 | > 300 | 100 to 300
5 | COc1nc2c(Oc3cc(F)c(NC(=O)C4(C(=O)Nc5ccc(F)cc5)CC4)cc3F)ccnc2cc1OCCN1CCOCC1 [Compound 153, 1-N′-[2,5-difluoro-4-[[6-methoxy-7-(2-morpholin-4-ylethoxy)-1,5-naphthyridin-4-yl]oxy]phenyl]-1-N-(4-fluorophenyl)cyclo-propane-1,1-dicarboxamide] | ≤ 10 | 10 to 100 | ≤ 10
6 | COCCOc1cc2nccc(Oc3cc(F)c(NC(=O)C4(C(=O)Nc5ccc(F)cc5)CC4)cc3F)c2nc1OC [Compound 152, 1-N′-[2,5-difluoro-4-[[6-methoxy-7-(2-methoxy-ethoxy)-1,5-naphthyridin-4-yl]oxy]phenyl]-1-N-(4-fluoro-phenyl)cyclopropane-1,1-dicarboxamide] | ≤ 10 | 10 to 100 | ≤ 10
7 | COc1cc2nccc(Oc3ccc(NC(=O)C4(C(=O)Nc5ccc(F)cc5)CC4)cc3Cl)c2nc1C#N [Compound 166, 1-N′-[3-chloro-4-[(6-cyano-7-methoxy-1,5-naphthyridin-4-yl)oxy]phenyl]-1-N-(4-fluorophenyl)cyclopropane-1,1-dicarboxamide] | 100 to 300 | 100 to 300 | 10 to 100
8 | COc1cc2nccc(Oc3cc(F)c(NC(=O)C4(C(=O)Nc5ccc(F)cc5)CC4)cc3F)c2nc1OC [Compound 142, 1-N′-[4-[(6,7-dimethoxy-1,5-naphthyridin-4-yl)oxy]-2,5-difluorophenyl]-1-N-(4-fluorophenyl)cyclo-propane-1,1-dicarboxamide] | ≤ 10 | 10 to 100 | ≤ 10
9 | COCCOc1cc2ncnc(Oc3ccc(NC(=O)C4(C(=O)Nc5ccc(F)cc5)CC4)cc3)c2nc1OC [Compound 78, 1-N′-(4-fluorophenyl)-1-N-[4-[6-methoxy-7-(2-methoxyethoxy)pyrido[3,2-d]pyrimidin-4-yl]oxyphenyl]cyclopropane-1,1-dicarboxamide] | 10 to 100 | 100 to 300 | ≤ 10
10 | COc1cc2nccc(Oc3ccc(NC(=O)C4(C(=O)Nc5ccc(F)cc5)CC4)cc3F)c2nc1C#N [Compound 165, 1-N′-[4-[(6-cyano-7-methoxy-1,5-naphthyridin-4-yl)oxy]-3-fluorophenyl]-1-N-(4-fluorophenyl)cyclo-propane-1,1-dicarboxamide] | 10 to 100 | 100 to 300 | 100 to 300

More lines, now with the values ahead:

Row | IC50 (AXL) [nM] | IC50 (Met) [nM] | IC50 (KDR) [nM] | SMILES
11 | 100 to 300 | > 300 | > 300 | COc1cc2nccc(Oc3ccc(NC(=O)C4(C(=O)Nc5ccc(F)cc5)CC4)cc3)c2nc1C(N)=O [Compound 167, 1-N-[4-[(6-carbamoyl-7-methoxy-1,5-naphthyridin-4-yl)oxy]phenyl]-1-N′-(4-fluorophenyl)cyclopropane-1,1-dicarboxamide]
12 | > 300 | 100 to 300 | > 300 | COc1cc2nccc(Oc3ccc(NC(=O)C4(C(=O)Nc5ccc(F)cc5)CC4)cc3)c2nc1C(=O)N(C)C [Compound 174, 1-N-[4-[[6-(dimethyl-carbamoyl)-7-methoxy-1,5-naphthyridin-4-yl]oxy]phenyl]-1-N′-(4-fluorophenyl)cyclopropane-1,1-dicarboxamide]
13 | 100 to 300 | 100 to 300 | 100 to 300 | CNC(=O)c1nc2c(Oc3ccc(NC(=O)C4(C(=O)Nc5ccc(F)cc5)CC4)cc3F)ccnc2cc1OC [Compound 173, 1-N′-[3-fluoro-4-[[7-methoxy-6-(methylcarbamoyl)-1,5-naphthyridin-4-- yl]oxy]phenyl]-1-N-(4-fluoro-phenyl)cyclopropane-1,1-dicarboxamide]
14 | 10 to 100 | 10 to 100 | 10 to 100 | COc1cc2nccc(Oc3ccc(NC(=O)C4(C(=O)Nc5ccc(F)cc5)CC4)cc3Cl)c2nc1C(N)=O [Compound 169, 1-N′-[4-[(6-carbamoyl-7-methoxy-1,5-naphthyridin-4-yl)oxy]-3-chlorophenyl]-1-N-(4-fluorophenyl)cyclo-propane-1,1-dicarboxamide]
15 | ≤ 10 | 10 to 100 | 100 to 300 | COc1cnc2c(Oc3cc(F)c(NC(=O)C4(C(=O)Nc5ccc(F)cc5)CC4)cc3F)ccnc2c1 [Compound 176, 1-N′-[2,5-difluoro-4-[(7-methoxy-1,5-naphthyridin-4-yl)oxy]phenyl]-1-N-(4-fluorophenyl)cyclopropane-1,1-dicarboxamide]
16 | > 300 | > 300 | > 300 | COc1cc2nccc(Oc3ccc(NC(=O)C4(C(=O)Nc5ccc(F)cc5)CC4)cc3)c2nc1-c1ccnn1C [Compound 184, 1-N′-(4-fluorophenyl)-1-N-[4-[[7-methoxy-6-(2-methyl-pyrazol-3-yl)-1,5-naphthyridin-4-yl]oxy]phenyl]cyclo-propane-1,1-dicarboxamide]
